Key:
[1] = test system: p-IKKα levels in L363 (NIK translocated multiple myeloma) cells; test: Effect of compounds on p-IKKα levels in L363 cells (AlphaLISA SureFire Ultra); format: cell-based, human; settings: Homo sapiens, L-363, 6 h, BAFF stimulated, MG132, 6 h, average of values, read-out: Assay 2 IC50
In short: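 Inhibition of p-IKKα (Ser176/180) read by AlphaLISA after 6 h, 37 °C compound exposure (11-point 1:3 series, 0.3% DMSO) of L363 cells pre-incubated overnight ± 250 ng/ml BAFF and plated ± BAFF ± 10 μM MG132. Normalised to BAFF/MG132/DMSO and unstimulated controls; IC50 by sigmoidal fitting, duplicates.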

[2] = target: recombinant human NF-kappaB-inducing kinase (NIK/MAP3K14) (Homo sapiens (Human), UniProt Q99558); test: Inhibition of auto-phosphorylation of recombinant human NIK/MAP3K14 (AlphaScreen); format: biochemical; settings: NIK auto-phosphorylation, 5 μM ATP, 1 nM NIK, 2 h at 25° C.; average of values
recombinant human NF-kappaB-inducing kinase (NIK/MAP3K14), sequence (Q99558 whole entry): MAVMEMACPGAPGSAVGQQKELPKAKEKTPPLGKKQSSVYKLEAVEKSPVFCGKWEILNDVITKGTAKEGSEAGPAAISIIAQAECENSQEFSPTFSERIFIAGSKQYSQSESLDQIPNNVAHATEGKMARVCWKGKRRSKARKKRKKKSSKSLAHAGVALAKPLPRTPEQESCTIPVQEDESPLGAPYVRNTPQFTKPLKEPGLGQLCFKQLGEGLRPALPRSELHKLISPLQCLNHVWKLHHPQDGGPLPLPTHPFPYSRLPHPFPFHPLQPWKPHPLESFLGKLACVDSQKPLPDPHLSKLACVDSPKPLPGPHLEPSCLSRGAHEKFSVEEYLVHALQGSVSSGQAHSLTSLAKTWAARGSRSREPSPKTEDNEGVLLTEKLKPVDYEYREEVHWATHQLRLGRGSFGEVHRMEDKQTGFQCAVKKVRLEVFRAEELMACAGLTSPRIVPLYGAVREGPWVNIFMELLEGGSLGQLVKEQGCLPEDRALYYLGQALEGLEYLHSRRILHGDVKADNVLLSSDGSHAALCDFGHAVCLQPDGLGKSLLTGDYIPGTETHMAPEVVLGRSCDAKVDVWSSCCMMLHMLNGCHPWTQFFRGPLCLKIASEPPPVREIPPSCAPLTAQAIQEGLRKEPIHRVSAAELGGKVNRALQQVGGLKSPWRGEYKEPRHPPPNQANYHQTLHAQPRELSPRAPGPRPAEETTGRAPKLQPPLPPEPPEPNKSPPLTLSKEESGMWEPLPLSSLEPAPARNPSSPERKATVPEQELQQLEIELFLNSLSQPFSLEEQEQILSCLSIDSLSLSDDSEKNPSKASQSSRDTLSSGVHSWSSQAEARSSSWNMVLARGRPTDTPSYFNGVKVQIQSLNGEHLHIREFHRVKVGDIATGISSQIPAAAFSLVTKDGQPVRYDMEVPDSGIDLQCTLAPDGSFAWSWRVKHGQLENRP
In short: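 AlphaScreen read-out (anti-phospho-IKK Ser176/180 antibody, Protein A acceptor and glutathione donor beads) of NIK auto-phosphorylation. Reaction: 1 nM enzyme, 5 μM ATP, Tris pH 7.5 buffer with Mg2+ and vanadate, 2 h at 25° C., final DMSO 0.7%. IC50 came from a sigmoidal curve fit.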

IC50 [1] [nM] | IC50 [2] [nM] | SMILES
> 5000 | 840 | Cc1nnc([C@](C)(O)C#Cc2ccc(C)c(-c3ccc4ccnc(N)c4c3)c2)o1 [Example 78, (R)-4-[3-(1-Amino-7-isoquinolyl)-4-methyl-phenyl]-2-(5-methyl-1,3,4-oxadiazol-2-yl)but-3-yn-2-ol]
66 | 2.3 | Cc1cc(C#C[C@]2(O)CCN(C)C2=O)cc(-c2ncc3c(C)cnc(N)c3n2)c1 [Example 76, (R)-3-[2-[3-(8-Amino-5-methyl-pyrido[3,4-d]pyrimidin-2-yl)-5-methyl-phenyl]ethynyl]-3-hydroxy-1-methyl-pyrrolidin-2-one]
1600 | 42 | O=c1[nH]ccc2cnc(-c3cccc(C#CC4(O)CCc5cccnc54)c3)nc12 (stereo in doubt) [Example 47, (R)-2-[3-[2-(7-Hydroxy-5,6-dihydrocyclopenta[b]pyridin-7-yl)ethynyl]phenyl]-7H-pyrido[3,4-d]pyrimidin-8-one]
28 | 0.7 | CN1CC[C@@](O)(C#Cc2cccc(-c3ncc4c(CC(C)(C)C)cnc(N)c4n3)c2)C1=O [Example 151, (R)-3-((3-(8-Amino-5-neopentylpyrido[3,4-d]pyrimidin-2-yl)phenyl)ethynyl)-3-hydroxy-1-methylpyrrolidin-2-one]
320 | 7.4 | CN1CC[C@@](O)(C#Cc2cccc(-c3ccc4ncnc(N5CC(C#N)C5)c4n3)c2)C1=O [Example 242, (R)-1-(6-(3-((3-Hydroxy-1-methyl-2-oxopyrrolidin-3-yl)ethynyl)phenyl)pyrido[3,2-d]pyrimidin-4-yl)azetidine-3-carbonitrile]
> 5000 | 1110 | Cc1nc(N)c2nc(-c3cccc(C#C[C@@](C)(O)c4nc(C(F)(F)F)cs4)c3)ccc2n1 [Example 192, (R)-4-(3-(4-Amino-2-methylpyrido[3,2-d]pyrimidin-6-yl)phenyl)-2-(4-(trifluoromethyl)thiazol-2-yl)but-3-yn-2-ol]
210 | 5.7 | CN1CC[C@@](O)(C#Cc2cccc(-c3ccc4ncnc(N5CC(F)(F)C5)c4n3)c2)C1=O [Example 232, (R)-3-((3-(4-(3,3-Difluoroazetidin-1-yl)pyrido[3,2-d]pyrimidin-6-yl)phenyl)ethynyl)-3-hydroxy-1-methylpyrrolidin-2-one]
240 | 7.8 | CNc1ncnc2ccc(-c3cccc(C#C[C@]4(O)CCN(C)C4=O)c3)nc12 [Example 27, (R)-3-Hydroxy-1-methyl-3-((3-(4-(methylamino)pyrido[3,2-d]pyrimidin-6-yl)phenyl)ethynyl)pyrrolidin-2-one]
> 5000 | 160 | CN1CC[C@](O)(C#Cc2cccc(-c3ncc4ccnc(N)c4n3)c2)C1=O [Example 2, (S)-3-[2-[3-(8-Aminopyrido[3,4-d]pyrimidin-2-yl)phenyl]ethynyl]-3-hydroxy-1-methyl-pyrrolidin-2-one]
59 | 0.7 | Cc1nc(N)c2nc(-c3cccc(C#C[C@@](C)(O)c4cscn4)c3)ccc2n1 [Example 212, (R)-4-[3-(4-Amino-2-methyl-pyrido[3,2-d]pyrimidin-6-yl)phenyl]-2-thiazol-4-yl-but-3-yn-2-ol]
3.6 | ≤ 0.5 | CN1CC[C@@](O)(C#Cc2cccc(-c3cc(-c4cccs4)c4ncnc(N)c4n3)c2)C1=O [Example 311, (R)-3-((3-(4-Amino-8-(thiophen-2-yl)pyrido[3,2-d]pyrimidin-6-yl)phenyl)ethynyl)-3-hydroxy-1-methylpyrrolidin-2-one]
1980 | 11 | Cc1ccc(C#C[C@]2(O)CCn3ccnc32)cc1-c1ccc2ccnc(N)c2c1 [Example 81, (R)-7-[2-[3-(1-Amino-7-isoquinolyl)-4-methyl-phenyl]ethynyl]-5,6-dihydropyrrolo[1,2-a]imidazol-7-ol]
480 | 6.6 | Cc1nc(-c2cccc(C#C[C@]3(O)CCN(CC(F)(F)F)C3=O)c2)nc2c(N)nccc12 [Example 92, (R)-3-[2-[3-(8-Amino-4-methyl-pyrido[3,4-d]pyrimidin-2-yl)phenyl]ethynyl]-3-hydroxy-1-(2,2,2-trifluoroethyl)pyrrolidin-2-one]
13 | 0.7 | [2H]c1nc(N)c2nc(-c3cccc(C#C[C@]4(O)CCN(C)C4=O)c3)cc(C3CCCC3)c2n1 [Example 277, (R)-3-((3-(4-Amino-8-cyclopentylpyrido[3,2-d]pyrimidin-6-yl-2-d)phenyl)ethynyl)-3-hydroxy-1-methylpyrrolidin-2-one]
3.2 | ≤ 0.5 | [2H]C([2H])([2H])N1CC[C@@](O)(C#Cc2cccc(-c3nc(C)c4ccnc(N)c4n3)c2)C1=O [Example 83, (R)-3-((3-(8-Amino-4-methylpyrido[3,4-d]pyrimidin-2-yl)phenyl)ethynyl)-3-hydroxy-1-(methyl-da)pyrrolidin-2-one]
> 5000 | 350 | CN1CC[C@@](O)(C#Cc2cccc(-c3nc4c(N)ncnc4o3)c2)C1=O [Example 142, (R)-3-((3-(7-Aminooxazolo[5,4-d]pyrimidin-2-yl)phenyl)ethynyl)-3-hydroxy-1-methylpyrrolidin-2-one]
390 | 4.2 | CN1CC[C@@](O)(C#Cc2cccc(-c3ccc4ncnc(N5CCCC5)c4n3)c2)C1=O [Example 222, (R)-3-Hydroxy-1-methyl-3-((3-(4-(pyrrolidin-1-yl)pyrido[3,2-d]pyrimidin-6-yl)phenyl)ethynyl)pyrrolidin-2-one]
> 5000 | 52 | Cc1nc(-c2cccc(C#Cc3ccn[nH]3)c2)nc2c(N)nccc12 [Example 107, 2-(3-((1H-Pyrazol-5-yl)ethynyl)phenyl)-4-methylpyrido[3,4-d]pyrimidin-8-amine]
8.3 | 1 | COc1ccc(C#C[C@]2(O)CCN(C)C2=O)cc1-c1nc2c(N)ncnc2s1 [Example 194, (R)-3-((3-(7-Aminothiazolo[5,4-d]pyrimidin-2-yl)-4-methoxyphenyl)ethynyl)-3-hydroxy-1-methylpyrrolidin-2-one]
590 | 2.3 | Cc1cc([C@](C)(O)C#Cc2cccc(-c3ccc4ccnc(N)c4n3)c2)no1 [Example 89, (R)-4-[3-(8-Amino-1,7-naphthyridin-2-yl)phenyl]-2-(5-methylisoxazol-3-yl)but-3-yn-2-ol]
24 | 0.8 | CN1CC[C@@](O)(C#Cc2cccc(-c3cc(NC4CC4)c4ncnc(N)c4n3)c2)C1=O [Example 298, (R)-3-[2-[3-[4-Amino-8-(cyclopropylamino)pyrido[3,2-d]pyrimidin-6-yl]phenyl]ethynyl]-3-hydroxy-1-methyl-pyrrolidin-2-one]
350 | 11 | [2H]C([2H])([2H])N1CCC(O)(C#Cc2cccc(-c3ncc4ccnc(N)c4n3)c2)C1=O (stereo in doubt) [Example 67, (S)-3-[2-[3-(8-Aminopyrido[3,4-d]pyrimidin-2-yl)phenyl]ethynyl]-3-hydroxy-1-(trideuteriomethyl)pyrrolidin-2-one]
2060 | 83 | Cc1ccc(C#C[C@@]2(O)CCN(C)C2=O)cc1-c1nc2c(N)ncnc2s1 [Example 11, (S)-3-((3-(7-Aminothiazolo[5,4-d]pyrimidin-2-yl)-4-methylphenyl)ethynyl)-3-hydroxy-1-methylpyrrolidin-2-one]
1080 | 18 | Cc1nc(N)c2nc(-c3cccc(C#C[C@@](C)(O)c4nnc(C)o4)c3)ccc2n1 [Example 213, (R)-4-(3-(4-Amino-2-methylpyrido[3,2-d]pyrimidin-6-yl)phenyl)-2-(5-methyl-1,3,4-oxadiazol-2-yl)but-3-yn-2-ol]
12 | 1.7 | Cc1nc(N)c2nc(-c3cccc(C#C[C@]4(O)CCN(C)C4=O)c3)cc(C)c2n1 [Example 285, (R)-3-((3-(4-Amino-2,8-dimethylpyrido[3,2-d]pyrimidin-6-yl)phenyl)ethynyl)-3-hydroxy-1-methylpyrrolidin-2-one]
280 | 3.6 | CN1CC[C@@](O)(C#Cc2cccc(-c3ncc4c(CN5CCCCC5)cnc(N)c4n3)c2)C1=O [Example 145, (R)-3-[2-[3-[8-Amino-5-(1-piperidylmethyl)pyrido[3,4-d]pyrimidin-2-yl]phenyl]ethynyl]-3-hydroxy-1-methyl-pyrrolidin-2-one]
190 | 6.8 | [2H]c1nc(N)c2nc(-c3cccc(C#C[C@]4(O)CCN(C)C4=O)c3)cc(CC)c2n1 [Example 308, (R)-3-((3-(4-Amino-8-ethylpyrido[3,2-d]pyrimidin-6-yl-2-d)phenyl)ethynyl)-3-hydroxy-1-methylpyrrolidin-2-one]
900 | 16 | Cc1nc(N)c2c(n1)CCN(c1cccc(C#C[C@]3(O)CCN(C)C3=O)c1)C2 [Example 215, (R)-3-((3-(4-Amino-2-methyl-7,8-dihydropyrido[4,3-d]pyrimidin-6(5H)-yl)phenyl)ethynyl)-3-hydroxy-1-methylpyrrolidin-2-one]
> 5000 | 2950 | CN1CC[C@@](O)(C#Cc2cccc(-c3ccc4nccc(N5CCC5)c4c3)c2)C1=O [Example 235, (R)-3-((3-(4-(Azetidin-1-yl)quinolin-6-yl)phenyl)ethynyl)-3-hydroxy-1-methylpyrrolidin-2-one]

From patent publication US20240199605A1, “SMALL MOLECULAR INHIBITORS OF NF-kB INDUCING KINASE” (Janssen Pharmaceutica NV, priority 2019, published 2024)
